The structures appear in SMILES notation.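 Five concentrations, 48 hours, 96-well plates. Here, GI50 denotes the concentration required for 50% inhibition of growth. TGI: concentration producing complete growth inhibition.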

Results on 26 compounds are retold here after PubChem BioAssay (NCI).

Common to all, as to test: NCI-60 cell line screen, 48 h
For experiment [1], the system named is ACHN renal.
Experiment [2] deals with CCRF-CEM leukemia.
Experiment [3] deals with HCC-2998 colon.
The subject of experiment [4] is IGROV1 ovarian.
Experiment [5] deals with MDA-MB-231 breast.
Experiment [6] relates to MDA-MB-435.
Experiment [7] relates to MOLT-4 leukemia.
Experiment [8] relates to SK-OV-3 ovarian.
For experiment [9], the system named is DU-145 prostate.
In experiment [10] the test system is KM12 colon.
Experiment [11] concerns NCI-H522 lung.
In experiment [12] the test system is UO-31 renal.
Experiment [13] relates to NCI-H460 lung.

As for `CCCc1cn2c(/C=N/N=C(N)N)c(-c3ccc([N+](=O)[O-])cc3)nc2s1`, the TGI in experiment [1] was determined as 2.88 µM; in experiment [2], 1.3 µM; in experiment [3] it was 2.03 µM; in [4], 3.05 µM; in [5] it was 3.51 µM; in experiment [6], 3.1 µM. Besides, the TGI in [7] stood at 0.441 µM; in experiment [8], 2.92 µM.
`C=C1C(=O)O[C@H]2C1C[C@H](O)/C(C)=C/CC[C@@]1(C)O[C@H]21` (some centres undefined): the TGI was 22 µM in [1]; 13.6 µM in experiment [2]; 49.5 µM in experiment [9]; 27.5 µM in experiment [3]; 28.3 µM in [4]; 30.1 µM in experiment [10]. Also, the TGI in experiment [5] was 38.4 µM; in [6], 37.3 µM; in experiment [11] it was 3.43 µM; in experiment [8], above 100 µM; in experiment [12] it was 28.6 µM.
Take `C[n+]1ccc2/c(=C\C#N)c3ccccc3n21`: the TGI was above 100 µM in [1]; 51.4 µM in experiment [2]; 46.4 µM in [9]; 50.6 µM in [3]; 78.3 µM in [4]; 45.1 µM in [10]. Also, the TGI is 63 µM in [6]; above 100 µM in [7]; above 100 µM in [13]; 70.8 µM in experiment [11]; 83 µM in experiment [8]; above 100 µM in experiment [12].
`Cc1c2c(n3c(nc4ccccc43)c1C#N)NCC2`: the TGI in experiment [1], in [2], in experiment [9], in [4], in experiment [10] and in [5] was above 10 µM in each case. Besides, the TGI in experiment [6], in experiment [7], in [13], in [8] and in experiment [12] was above 10 µM throughout.
Regarding `CC1=C(N2CC2)C(=O)C(C)=C(N2CC2)C1=O`, the TGI in experiment [1] stood at 0.445 µM; in experiment [2] it was 3.3 µM; in experiment [9], 4.69 µM; in [3] it was 0.362 µM; in experiment [4] it was 1.31 µM; in experiment [10], 1.89 µM. For the same compound, the TGI in [5] is above 100 µM; in experiment [7], 13.5 µM; in experiment [13] it was 0.634 µM; in [11] it was 0.423 µM; in [8] it was 2.9 µM; in experiment [12], 0.353 µM.
As for `Cc1nc2c(n1Cc1ccc(F)cc1)C(=O)c1ccccc1C2=O`, the TGI in experiment [1], in [2], in [3], in [4], in experiment [10] and in experiment [7] was above 100 µM each time. The TGI is above 100 µM in experiment [13], 26 µM in experiment [11], above 100 µM in experiment [8] and above 100 µM in experiment [12].
Consider `COc1ccccc1NC(=O)C(=O)C(c1cnc2ccc([N+](=O)[O-])cc2n1)[N+](=O)[O-]` (centres undefined), for which the TGI in [1], in [2], in [3], in experiment [4], in [10] and in experiment [7] was above 100 µM throughout. In addition, the TGI in experiment [13], in [11], in experiment [8] and in experiment [12] was above 100 µM each time.
On to `CCCCCCCC(=O)OC(COC(=O)Cc1ccccc1)COC(=O)C(C)(C)C` (centres undefined), for which the TGI in experiment [1], in experiment [2], in [3], in experiment [4], in experiment [7] and in experiment [13] was above 100 µM in each case. Further, the TGI in experiment [8] and in [12] was above 100 µM throughout.
In the case of `Cc1cc2nc3c(C#N)c4c(c(Cl)n3c2cc1C)CCC4`, the TGI in [1] is 55.9 µM; in experiment [10] it was above 100 µM; in [5], 35.1 µM; in [6], 42.5 µM; in experiment [7], above 100 µM; in experiment [13], above 100 µM. Further, the TGI was 32.5 µM in experiment [11] and above 100 µM in experiment [8].
With `N#C/C(=C\c1ccccc1F)C(=O)c1ccccc1`, the TGI in experiment [1], in experiment [2], in experiment [3], in experiment [4], in experiment [10] and in [7] was above 100 µM throughout. In addition, the TGI in experiment [11], in experiment [8] and in experiment [12] was above 100 µM throughout.
`COc1cc(Cn2c3ccccc3c3cc(C)cc(OC)c32)cc2c1[nH]c1ccccc12`: the GI50 in [1] is 12.2 µM; in [2] it was 12 µM; in experiment [10] it was 10.2 µM; in experiment [7] it was 8.51 µM; in experiment [13], 10.8 µM; in [11] it was 5.43 µM. Moreover, the TGI in experiment [1], in experiment [2], in experiment [3], in [4], in experiment [10] and in experiment [7] was above 25 µM each time. The TGI was above 25 µM in experiment [13], 21 µM in experiment [11], above 25 µM in experiment [8] and above 25 µM in [12].
On to `Cc1cc(N(CCC#N)CCC#N)ccc1/C=C(\N=[N+]=[N-])C(=O)NC(=O)COc1ccccc1`, for which the TGI in experiment [1], in experiment [2], in [3], in [4], in experiment [10] and in experiment [7] was above 100 µM in each case. For the same compound, the TGI in experiment [13], in experiment [11], in experiment [8] and in experiment [12] was above 100 µM in each case.
`CC(Cn1c(=O)oc2ccccc21)N(C)C` (centres undefined): the TGI in experiment [1], in [2], in experiment [9], in [4], in experiment [10] and in experiment [5] was above 100 µM each time. The TGI in [6], in experiment [7], in [13] and in experiment [8] was above 100 µM throughout.
For the compound `O=C1CS(=O)c2ccccc2N1` (centres undefined), the TGI in experiment [1], in experiment [2], in [3], in [4], in [10] and in [7] was above 100 µM in each case. In addition, the TGI in experiment [13], in [11], in [8] and in experiment [12] was above 100 µM throughout.
`CC1=NC(=O)CNN1C1=NNC2(C(=O)N1)c1ccccc1-c1ccccc12`: the TGI in [1], in experiment [2], in experiment [9], in experiment [3], in [4] and in [5] was above 100 µM in each case. For the same compound, the TGI in [6], in [13], in experiment [11], in experiment [8] and in [12] was above 100 µM throughout.
In the case of `CN(CCO)c1nc(=O)c2c(n1C1OC(CO)C(O)C(O)C1O)CCCC2` (centres undefined), the TGI in experiment [1], in experiment [2], in experiment [3], in [4], in [10] and in experiment [7] was above 100 µM each time. In addition, the TGI in experiment [13], in experiment [11], in experiment [8] and in experiment [12] was above 100 µM throughout.
Take `CCOC(=O)C1=C(C)C2C3C(=O)OC(=O)C3C1(C)C1C(=O)OC(=O)C21` (centres undefined): the TGI in experiment [1], in [2], in [3], in experiment [4], in experiment [10] and in experiment [7] was above 100 µM in each case. Also, the TGI in experiment [13], in experiment [8] and in [12] was above 100 µM in each case.
Take `CC(C)OP(=O)(OC(C)C)/C(=N/Nc1ccc([N+](=O)[O-])cc1)NNC(=O)c1ccccc1`: the TGI in experiment [1] was above 100 µM; in [2], 55.4 µM; in [3], 70.4 µM; in experiment [10] it was above 100 µM; in experiment [7] it was 42.2 µM; in experiment [13], above 100 µM. Also, the TGI in experiment [11] and in [12] was above 100 µM each time.
On to `O=C(/C=C/c1ccc(Cl)cc1)c1nc2ccccc2[nH]1`, for which the TGI is above 100 µM in experiment [1]; 16.6 µM in experiment [2]; 33.1 µM in experiment [9]; 25.8 µM in experiment [3]; above 100 µM in [4]; 13.3 µM in experiment [10]. For the same compound, the TGI in experiment [5] is above 100 µM; in [6], 36.2 µM; in [13] it was above 100 µM; in experiment [11], above 100 µM; in [8], above 100 µM; in experiment [12] it was 24 µM.
For `N#CCCN(c1ccc(C=Nc2ccc(C(=O)O)cc2)cc1)S(=O)(=O)c1ccccc1`, the TGI in [1], in experiment [2], in experiment [3], in experiment [4], in experiment [10] and in [7] was above 100 µM throughout. In addition, the TGI in experiment [13], in experiment [11], in experiment [8] and in experiment [12] was above 100 µM throughout.
In the case of `CN(C)C1(N(C)C)Oc2c(c(=O)n(C)c(=O)n2C)C(c2ccc(F)cc2)C1(F)F` (centres undefined), the TGI in experiment [1], in experiment [2], in [9], in experiment [3], in [10] and in experiment [5] was above 100 µM in each case. The TGI in experiment [6], in experiment [13], in experiment [8] and in experiment [12] was above 100 µM throughout.
Regarding `O=C1Nc2n[nH]c(=S)n2NC12c1ccccc1-c1ccccc12`, the TGI is above 100 µM in [1]; above 100 µM in experiment [9]; above 100 µM in [3]; above 100 µM in [4]; above 100 µM in experiment [5]; 37.4 µM in [6]. Besides, the TGI in [13], in experiment [11], in experiment [8] and in experiment [12] was above 100 µM each time.
For `COc1cc2c(c(OC)c1)C(=O)C(=O)C(CC1(C)OCCCO1)=C2`, the TGI in [1] was 17.9 µM; in experiment [2], 4.72 µM; in [3] it was 30.1 µM; in [4], 27.8 µM; in experiment [10] it was 29.7 µM; in experiment [7], above 29.9 µM. Also, the TGI turned out to be 26.6 µM in [13], 2.7 µM in [11], 30.2 µM in [8] and 25.6 µM in [12].
`O=C(O)CCC1(CCC(=O)O)CCCCCCCCC(CCC(=O)O)(CCC(=O)O)C(=O)C1=O`: the TGI in [1], in experiment [9], in experiment [3], in experiment [10], in [6] and in experiment [13] was above 100 µM in each case. Further, the TGI in experiment [11] and in [8] was above 100 µM throughout.
For the compound `CCOC(=O)C(C(=O)OCC)S(C)(=O)=O`, the TGI in experiment [1], in experiment [2], in experiment [3], in [4], in experiment [10] and in experiment [7] was above 100 µM in each case. For the same compound, the TGI in experiment [13], in experiment [11], in experiment [8] and in experiment [12] was above 100 µM in each case.
Consider `Nc1nc(N)c2c(-c3ccccc3)ccnc2n1`, for which the TGI in experiment [1], in experiment [2], in [9], in experiment [3], in experiment [4] and in experiment [5] was above 100 µM each time. Also, the TGI in experiment [6], in [13], in experiment [11], in [8] and in experiment [12] was above 100 µM in each case.
